This is an account of results in ChEMBL document CHEMBL5380777, “Efficacy, Mechanism, and Structure-Activity Relationship of 6-Methoxy Benzofuran Derivatives as a Useful Tool for Senile Osteoporosis” (J Med Chem, 2023).

The source made the active and inactive calls. The calls are words filed in the database; no cut-off is given here.

For data set [1], the system named is Mus musculus. In words: Anti osteoporosis in 16 months old C57 mouse assessed as fold increase in chondrocytes level in femur administered at 30 mg/kg/day, IG continuously for 4 months by scRNA-seq analysis relative to control. It counts as functional. The following applies: 2920 h.
Data set [2] in a line: Toxicity in 16 months old C57 mouse assessed as change in blood glucose level administered at 30 mg/kg/day, IG continuously for 4 months. It counts as organism-based. The conditions noted are these: in vivo, po, 2920 h.
The nature of data set [3]: Toxicity in 16 months old C57 mouse assessed as change in creatinine level administered at 30 mg/kg/day, IG continuously for 4 months. It counts as organism-based. The conditions noted are these: in vivo, po, 2920 h.
Data set [4] can be described thus: Toxicity in 16 months old C57 mouse assessed as change in serum ALT level administered at 30 mg/kg/day, IG continuously for 4 months. It counts as organism-based. The conditions noted are these: in vivo, po, 2920 h.
Data set [5] in a line: Toxicity in 16 months old C57 mouse assessed as change in alkaline phosphatase level administered at 30 mg/kg/day, IG continuously for 4 months. It counts as organism-based. The conditions noted are these: in vivo, po, 2920 h.
Data set [6] is described as follows: Toxicity in 2.5 months old SAMP-6 rapid aging mouse model assessed as change in serum ALT level administered at 30 mg/kg/day, IG continuously for 3 months in presence of ALN. It counts as organism-based. The conditions noted are these: in vivo, po, 2190 h.
The nature of data set [7]: Toxicity in 2.5 months old SAMP-6 rapid aging mouse model assessed as change in serum AST level administered at 30 mg/kg/day, IG continuously for 3 months in presence of ALN. The following applies: in vivo, po, 2190 h. It counts as organism-based.
The subject of data set [8] is Mus musculus. In words: Anti osteoporosis in 16 months old C57 mouse assessed as myeloid progenitor level in femur administered at 30 mg/kg/day, IG continuously for 4 months by scRNA-seq analysis (reference value: 2.18%). It counts as functional. The following applies: 2920 h.
The test system of data set [9] is Osteoblast. As to the kind of experiment: Upregulation of BMP-2 expression in 16 months old C57 mouse osteoblast by scRNA-seq analysis. It counts as functional, cell-based.
The test system of data set [10] is Osteoblast. In words: Upregulation of transcription factor XBP1 expression in 16 months old C57 mouse osteoblast by scRNA-seq analysis. It counts as functional, cell-based.
Data set [11] relates to Osteoblast. In words: Upregulation of transcription factor MKRN1 expression in 16 months old C57 mouse osteoblast by scRNA-seq analysis. It counts as functional, cell-based.

As for `COc1ccc2cc(C(=O)NCCN(C)C)oc2c1.CS(=O)(=O)O`, the “fold change (FC)” value in the data set on Mus musculus [1] was 2. Moreover, the Activity entry in data set [2], in [3], in data set [4], in data set [5], in data set [6] and in [7] was “Non-Toxic” in each case. Moreover, in the data set with Mus musculus [8], the Activity stood at 0.32%. The outcome in the data set on Osteoblast [9], in the data set with Osteoblast [10] and in the data set with Osteoblast [11] was Active.
